{"source": "ChEMBL document CHEMBL1151200", "about": "“Comparison of fascaplysin and related alkaloids: a study of structures, cytotoxicities, and sources” (J Nat Prod, 2004)", "key": {"MC-38 [1]": {"tested_on": "MC-38", "assay": "Cytotoxicity against mouse C38 cells at 3.4 ug/disk by disk diffusion soft agar colony formation assay", "assay_type": "functional"}, "[2]": {"assay": "Cytotoxicity against human H125 cells at 3.4 ug/disk by disk diffusion soft agar colony formation assay", "assay_type": "functional"}, "[3]": {"assay": "Cytotoxicity against mouse CFU-GM cells at 3.4 ug/disk by disk diffusion soft agar colony formation assay", "assay_type": "cell-based"}, "[4]": {"assay": "Cytotoxicity against human H125 cells at 0.8 ug/disk by disk diffusion soft agar colony formation assay", "assay_type": "functional"}, "CCRF-CEM [5]": {"tested_on": "CCRF-CEM", "assay": "Cytotoxicity against human CEM cells at 0.8 ug/disk by disk diffusion soft agar colony formation assay", "assay_type": "functional"}, "[6]": {"assay": "Cytotoxicity against human H116 cells at 0.8 ug/disk by disk diffusion soft agar colony formation assay", "assay_type": "functional"}, "[7]": {"assay": "Cytotoxicity against human H116 cells at 3.4 ug/disk by disk diffusion soft agar colony formation assay", "assay_type": "functional"}, "L1210 [8]": {"tested_on": "L1210", "assay": "Cytotoxicity against mouse L1210 cells at 3.4 ug/disk by disk diffusion soft agar colony formation assay", "assay_type": "functional"}, "CCRF-CEM [9]": {"tested_on": "CCRF-CEM", "assay": "Cytotoxicity against human CEM cells at 3.4 ug/disk by disk diffusion soft agar colony formation assay", "assay_type": "functional"}, "MC-38 [10]": {"tested_on": "MC-38", "assay": "Cytotoxicity against mouse C38 cells at 84 ug/disk by disk diffusion soft agar colony formation assay", "assay_type": "functional"}, "[11]": {"assay": "Cytotoxicity against human H125 cells at 84 ug/disk by disk diffusion soft agar colony formation assay", "assay_type": "functional"}, "L1210 [12]": {"tested_on": "L1210", "assay": "Cytotoxicity against mouse L1210 cells at 84 ug/disk by disk diffusion soft agar colony formation assay", "assay_type": "functional"}, "[13]": {"assay": "Cytotoxicity against human H116 cells at 84 ug/disk by disk diffusion soft agar colony formation assay", "assay_type": "functional"}, "[14]": {"assay": "Cytotoxicity against mouse CFU-GM cells at 84 ug/disk by disk diffusion soft agar colony formation assay", "assay_type": "cell-based"}, "CCRF-CEM [15]": {"tested_on": "CCRF-CEM", "assay": "Cytotoxicity against human CEM cells at 84 ug/disk by disk diffusion soft agar colony formation assay", "assay_type": "functional"}, "L1210 [16]": {"tested_on": "L1210", "assay": "Cytotoxicity against mouse L1210 cells at 64 ug/disk by disk diffusion soft agar colony formation assay", "assay_type": "functional"}, "MC-38 [17]": {"tested_on": "MC-38", "assay": "Cytotoxicity against mouse C38 cells at 64 ug/disk by disk diffusion soft agar colony formation assay", "assay_type": "functional"}, "[18]": {"assay": "Cytotoxicity against human H125 cells at 64 ug/disk by disk diffusion soft agar colony formation assay", "assay_type": "functional"}, "CCRF-CEM [19]": {"tested_on": "CCRF-CEM", "assay": "Cytotoxicity against human CEM cells at 64 ug/disk by disk diffusion soft agar colony formation assay", "assay_type": "functional"}, "[20]": {"assay": "Cytotoxicity against human H116 cells at 64 ug/disk by disk diffusion soft agar colony formation assay", "assay_type": "functional"}, "[21]": {"assay": "Cytotoxicity against human H116 cells at 200 ug/disk by disk diffusion soft agar colony formation assay", "assay_type": "functional"}, "[22]": {"assay": "Cytotoxicity against mouse CFU-GM cells at 200 ug/disk by disk diffusion soft agar colony formation assay", "assay_type": "cell-based"}, "L1210 [23]": {"tested_on": "L1210", "assay": "Cytotoxicity against mouse L1210 cells at 200 ug/dusk by disk diffusion soft agar colony formation assay", "assay_type": "functional"}, "MC-38 [24]": {"tested_on": "MC-38", "assay": "Cytotoxicity against mouse C38 cells at 200 ug/disk by disk diffusion soft agar colony formation assay", "assay_type": "functional"}}, "data": [{"smiles": "O=C1c2ccccc2-[n+]2ccc3c([nH]c4cc(Br)ccc43)c21.[Cl-]", "values": [{"measurement": "Activity", "setting": "MC-38 [1]", "result": 450, "unit": "Zone units"}, {"measurement": "Activity", "setting": "[2]", "result": 750, "unit": "Zone units"}, {"measurement": "Activity", "setting": "[3]", "result": 350, "unit": "Zone units"}, {"measurement": "Activity", "setting": "[4]", "result": 500, "unit": "Zone units"}, {"measurement": "Activity", "setting": "CCRF-CEM [5]", "result": 200, "unit": "Zone units"}, {"measurement": "Activity", "setting": "[6]", "result": 400, "unit": "Zone units"}, {"measurement": "Activity", "setting": "[7]", "result": 600, "unit": "Zone units"}, {"measurement": "Activity", "setting": "L1210 [8]", "result": 550, "unit": "Zone units"}, {"measurement": "Activity", "setting": "CCRF-CEM [9]", "result": 400, "unit": "Zone units"}]}, {"smiles": "COC(=O)c1ccc(Br)cc1-[n+]1ccc2c(c1)[nH]c1cc(Br)ccc12.[Cl-]", "values": [{"measurement": "Activity", "setting": "MC-38 [10]", "result": 350, "unit": "Zone units"}, {"measurement": "Activity", "setting": "[11]", "result": 500, "unit": "Zone units"}, {"measurement": "Activity", "setting": "L1210 [12]", "result": 450, "unit": "Zone units"}, {"measurement": "Activity", "setting": "[13]", "result": 300, "unit": "Zone units"}, {"measurement": "Activity", "setting": "[14]", "result": 400, "unit": "Zone units"}, {"measurement": "Activity", "setting": "CCRF-CEM [15]", "result": 300, "unit": "Zone units"}]}, {"smiles": "Oc1ccc(Br)cc1-[n+]1ccc2c(c1)[nH]c1ccccc12.[Cl-]", "values": [{"measurement": "Activity", "setting": "MC-38 [10]", "result": 400, "unit": "Zone units"}, {"measurement": "Activity", "setting": "[11]", "result": 550, "unit": "Zone units"}, {"measurement": "Activity", "setting": "L1210 [12]", "result": 450, "unit": "Zone units"}, {"measurement": "Activity", "setting": "[13]", "result": 500, "unit": "Zone units"}, {"measurement": "Activity", "setting": "[14]", "result": 450, "unit": "Zone units"}, {"measurement": "Activity", "setting": "CCRF-CEM [15]", "result": 750, "unit": "Zone units"}]}, {"smiles": "Oc1ccccc1-[n+]1ccc2c(c1)[nH]c1ccccc12.[Cl-]", "note": "[RETICULATOL]", "values": [{"measurement": "Activity", "setting": "L1210 [16]", "result": 200, "unit": "Zone units"}, {"measurement": "Activity", "setting": "MC-38 [17]", "result": 200, "unit": "Zone units"}, {"measurement": "Activity", "setting": "[18]", "result": 400, "unit": "Zone units"}, {"measurement": "Activity", "setting": "CCRF-CEM [19]", "result": ">1000", "unit": "Zone units"}, {"measurement": "Activity", "setting": "[20]", "result": 100, "unit": "Zone units"}]}, {"smiles": "COC(=O)c1ccc(Br)cc1-[n+]1ccc2c(c1)[nH]c1ccccc12.[Cl-]", "values": [{"measurement": "Activity", "setting": "[21]", "result": 200, "unit": "Zone units"}, {"measurement": "Activity", "setting": "[22]", "result": 250, "unit": "Zone units"}, {"measurement": "Activity", "setting": "L1210 [23]", "result": 350, "unit": "Zone units"}, {"measurement": "Activity", "setting": "MC-38 [24]", "result": 400, "unit": "Zone units"}]}]}
